# In patent publication US9555050B2 (BIOGEN MA INC., priority 2012, dated 2017):
# Biological target: T1, Human ATX protein (Homo sapiens, UniProt Q13822)
# T1 construct: made in house
# Assay: ATX biochemical FRET assay with FS-3 substrate
# Conditions: FS-3 substrate 2 μM, ATX 1.0 μg/mL, 30 min preincubation, 2 hours at room temperature
# Description: ATX (Autotaxin) is a 125 KDa glycoprotein with lysophospholipase D (LPLD) activity that generates the bioactive lipid lysophosphatidic acid (LPA) from lysophosphatidylcholine (LPC). The ATX biochemical assay utilizes a FRET (fluorescence resonance energy transfer) technology platform. The fluorescence signal of FRET substrate FS-3 is quenched due to intra-molecular FRET of a fluorophore to a non-fluorescing quencher (Ferguson, C. G., et al., Org Lett. 2006 May 11; 8(10): 2023-2026, which is incorporated by reference in its entirety). ATX catalyzes the hydrolysis of the substrate which separates the dabsyl quencher from the fluorescein reporter, which becomes fluorescent. The reaction is monitored by a SpectraMax M5 (Molecular Devices, Sunnyvale, Calif.) with at excitation wavelength 485 nm and emission wavelength […].
# Fatty acid free-BSA (Sigma A8806): 10 mg/mL in H2O, stored at 4° C.
# 2×ATX assay buffer: 100 mM Tris, 280 mM NaCl, 10 mM KCl, 2 mM CaCl2, 2 mM MgCl2, pH 7.4.
# Human ATX protein: expressed and purified in house. Stored at −80° C.
# Substrate FS-3 (Echelon, L-2000): 100 μg in 77.74.L H2O (1 mM stock), stored at −20° C.
# 384-well flat bottom plates—Corning #3575.
# Compound dilution—All compounds were provided at 10 mM in 100% DMSO. In the first well, 2 μL of 10 mM compound was added to 78 μL of DMSO (1:40 dilution). In subsequent wells 3-fold dilution (total 10 dilutions) were performed.
# 1×ATX assay buffer was made up with a final concentration of 1 mg/mL fatty acid free-BSA using 2×ATX assay buffer, 10 mg/ml fatty acid free-BSA and ddH2O.
# ATX protein was diluted with 1×ATX assay buffer to a concentration of 1.32 μg/mL (1.32×). 38 μL was added per well to the assay plate. The final concentration of ATX in the reaction as 1.0 μg/mL.
# 2 μL per well of compounds was transferred to provide the desired concentration. The plate was centrifuged, then incubated at room temperature for 30 minutes on the shaker.
# FS-3 was diluted with 1×ATX assay buffer to a concentration of FS-3 of 10 μM (5×). Then, 10 μL was added per well to the assay plate. The final concentration of FS-3 in the reaction was 2 μM. The plate was centrifuged. The plate was kept shaking at room temperature for 2 hours. Because FS-3 substrate is light sensitive, plates were kept covered and protected from light.
# Fluorescence was measured using SpectraMax M5 (excitation at 485 nm/emission at 538 nm, top read).
row,IC50 [nM],Structure (SMILES)
1,≤ 500,"CN(Cc1ccc2c(C(F)(F)F)c(O[C@H]3CC[C@@H](C(F)(F)F)CC3)ccc2c1)C[C@H]1CC[C@H](C(=O)O)CC1 [Example 28, (trans)-4-((methyl((5-(trifluoromethyl)-6-((cis)-4-(trifluoromethyl)cyclohexyloxy)naphthalen-2-yl)methyl)amino)methyl)cyclohexanecarboxylic acid]"
2,≤ 100,"C[C@H]1CC[C@@H](Oc2ccc3cc(CN4CCC[C@H](CC(=O)O)C4)ccc3c2C(F)(F)F)CC1 [Example 49, 2-((3R)-1-((6-((cis-4-Methylcyclohexyl)oxy)-5-(trifluoromethyl)naphthalen-2-yl)methyl)piperidin-3-yl)acetic acid]"
3,≤ 500,"CCC(NC1CC(C(=O)O)C1(C)C)c1ccc2c(C(F)(F)F)c(O[C@H]3CC[C@@H](C)CC3)ccc2c1 (relative stereo) [Example 36, 2,2-dimethyl-3-(1-(6-((cis)-4-methylcyclohexyloxy)-5-(trifluoromethyl)naphthalen-2-yl)propylamino)cyclobutanecarboxylic acid]"
4,≤ 100,CC1(C)C(NC(c2ccc3c(C(F)(F)F)c(O[C@H]4CC[C@@H](C(F)(F)F)CC4)ccc3c2)C2CC2)CC1C(=O)O (some centres unmarked) [Example 44]
5,≤ 500,"O=C(O)C1CCC(NCc2ccc3c(C(F)(F)F)c(O[C@H]4CC[C@@H](C(F)(F)F)CC4)ccc3c2)C1 (single isomer, unassigned) [Example 3b, 3-(((5-(trifluoromethyl)-6-((cis-4-(trifluoromethyl)cyclohexyl)oxy)-naphthalen-2-yl)methyl)amino)cyclopentanecarboxylic acid]"
6,≤ 100,"CC[C@@H](c1ccc2c(C(F)(F)F)c(O[C@H]3CC[C@@H](C)CC3)ccc2c1)N1CCC[C@H](CC(=O)O)C1 [Example 59, 2-((3R)-1-((S)-1-(6-((cis-4-Methylcyclohexyl)oxy)-5-(trifluoromethyl)naphthalen-2-yl)propyl)piperidin-3-yl)acetic acid]"
7,≤ 250,"O=C(O)CC1CCN(Cc2ccc3c(C(F)(F)F)c(O[C@H]4CC[C@@H](C(F)(F)F)CC4)ccc3c2)CC1 [Example 65, 1-((5-(trifluoromethyl)-6-((cis-4-(trifluoromethyl)cyclohexyl)oxy)-naphthalen-2-yl)methyl)piperidine-4-acetic acid]"
8,≤ 500,CC1(C)C(NC(c2ccc3c(C(F)(F)F)c(O[C@H]4CC[C@@H](C)CC4)ccc3c2)C2CCCCC2)CC1C(=O)O (some centres unmarked) [Example 42]
9,≤ 100,"C[C@H](c1ccc2c(C(F)(F)F)c(O[C@H]3CC[C@@H](C)CC3)ccc2c1)N1CCC[C@H](CC(=O)O)C1 [Example 96, 2-((3R)-1-((R)-1-(6-((cis-4-Methylcyclohexyl)oxy)-5-(trifluoromethyl)naphthalen-2-yl)ethyl)piperidin-3-yl)acetic acid]"
10,≤ 100,"CC[C@H]1CC[C@@H](Oc2ccc3cc(CN4CCC[C@H](CC(=O)O)C4)ccc3c2C(F)(F)F)CC1 [Example 84, 2-((R)-1-((2-(cis-4-(ethyl)cyclohexyloxy)-1-(trifluoromethyl)naphthalen-6-yl)methyl)piperidin-3-yl)acetic acid]"
11,≤ 100,"CC(c1ccc2c(C(F)F)c(O[C@H]3CC[C@@H](C)CC3)ccc2c1)N1CC(CC(=O)O)C1 (relative stereo) [Example 98, 1-(1-(5-(Difluoromethyl)-6-((cis-4-methylcyclohexyl)oxy)naphthalen-2-yl)ethyl)azetidine-3-acetic acid]"
12,≤ 100,"C[C@@H](c1ccc2c(C(F)F)c(O[C@H]3CC[C@@H](C)CC3)ccc2c1)N1CCC[C@H](CC(=O)O)C1 [Example 91, 2-((3R)-1-((S)-1-(6-((cis-4-Methylcyclohexyl)oxy)-5-(difluoromethyl)naphthalen-2-yl)ethyl)piperidin-3-yl)acetic acid]"
13,≤ 250,"O=C(O)CC1CCCN(Cc2ccc3c(C(F)(F)F)c(O[C@H]4CC[C@@H](C(F)(F)F)CC4)ccc3c2)C1 (relative stereo) [Example 67, 1-((5-(trifluoromethyl)-6-((cis-4-(trifluoromethyl)cyclohexyl)oxy)-naphthalen-2-yl)methyl)piperidine-3-acetic acid]"
14,≤ 100,"C[C@H]1CC[C@@H](Oc2ccc3cc(CN4CCC(C(=O)O)CC4)ccc3c2C(F)F)CC1 [Example 13, 1-((5-(Difluoromethyl)-6-((cis-4-methylcyclohexyl)oxy)naphthalen-2-yl)methyl)piperidine-4-carboxylic acid]"
15,≤ 100,"C[C@H]1CC[C@@H](Oc2ccc3cc(CN4CCC[C@H](CC(=O)O)C4)ccc3c2C(F)F)CC1 [Example 56, 2-((3R)-1-((6-((cis-4-Methylcyclohexyl)oxy)-5-(difluoromethyl)naphthalen-2-yl)methyl)piperidin-3-yl)acetic acid]"
16,≤ 500,"O=C(O)C1CN(Cc2ccc3c(C(F)(F)F)c(O[C@H]4CC[C@@H](C(F)(F)F)CC4)ccc3c2)CCC1O (relative stereo) [Example 35, 4-hydroxy-1-((5-(trifluoromethyl)-6-((cis)-4-(trifluoromethyl)cyclohexyloxy)naphthalen-2-yl)methyl)piperidine-3-carboxylic acid]"
17,≤ 500,"CN(Cc1ccc2c(C(F)(F)F)c(O[C@H]3CC[C@@H](C(F)(F)F)CC3)ccc2c1)[C@H]1CC[C@@H](C(=O)O)CC1 [Example 79, N-methyl-cis-4-(((5-(trifluoromethyl)-6-(cis-4-(trifluoromethyl)cyclohexyloxy)naphthalene-2-yl)methyl)amino)cyclohexane-1-carboxylic acid]"
18,≤ 500,"CC(c1ccc2c(C(F)(F)F)c(O[C@H]3CC[C@@H](C)CC3)ccc2c1)N1CCC(C(=O)O)CC1 (relative stereo) [Example 45, 1-(1-(5-trifluoromethyl-6-(cis-4-methylcyclohexyloxy)naphthalene-2-yl)ethyl)-piperidine-4-carboxylic acid]"
19,≤ 100,"C[C@@H](c1ccc2c(C(F)(F)F)c(O[C@H]3CC[C@@H](C)CC3)ccc2c1)N1CCC[C@H](CC(=O)O)C1 [Example 95, 2-((3R)-1-((S)-1-(6-((cis-4-Methylcyclohexyl)oxy)-5-(trifluoromethyl)naphthalen-2-yl)ethyl)piperidin-3-yl)acetic acid]"
20,≤ 100,"C[C@H]1CC[C@@H](Oc2ccc3cc(CN4CC(CC(=O)O)C4)ccc3c2C(F)F)CC1 [Example 97, 1-((5-(Difluoromethyl)-6-((cis-4-methylcyclohexyl)oxy)naphthalen-2-yl)methyl)azetidine-3-acetic acid]"
21,≤ 100,"CC(c1ccc2c(C(F)F)c(O[C@H]3CC[C@@H](C)CC3)ccc2c1)N1CCC[C@@H](CC(=O)O)C1 (stereo partly drawn) [Example 54, 2-((3S)-1-(1-(6-((cis-4-Methylcyclohexyl)oxy)-5-(difluoromethyl)naphthalen-2-yl)ethyl)piperidin-3-yl)acetic acid]"
22,≤ 100,"O=C(NCCCP(=O)(O)O)c1ccc2c(C(F)(F)F)c(O[C@H]3CC[C@@H](C(F)(F)F)CC3)ccc2c1 [Example 19, (3-(5-(trifluoromethyl)-6-((cis-4-(trifluoromethyl)cyclohexyl)oxy)-2-naphthamido)propyl)phosphonic acid]"
23,≤ 500,CC1(C)C(NC(c2ccc3c(C(F)(F)F)c(O[C@H]4CC[C@@H](C(F)(F)F)CC4)ccc3c2)C2CCCCC2)CC1C(=O)O (some centres unmarked) [Example 43]
24,≤ 500,"O=C(O)C1CCCN(C(=O)c2ccc3c(C(F)(F)F)c(O[C@H]4CC[C@@H](C(F)(F)F)CC4)ccc3c2)CC1 (relative stereo) [Example 31, 1-(5-(trifluoromethyl)-6-((cis)-4-(trifluoromethyl)cyclohexyloxy)-2-naphthoyl)azepane-4-carboxylic acid]"
25,≤ 100,"CC[C@@H](c1ccc2c(C(F)F)c(O[C@H]3CC[C@@H](C)CC3)ccc2c1)N1CCC[C@H](CC(=O)O)C1 [Example 93, 2-((3R)-1-((S)-1-(6-((cis-4-Methylcyclohexyl)oxy)-5-(difluoromethyl)naphthalen-2-yl)propyl)piperidin-3-yl)acetic acid]"
26,≤ 500,"NC1(C(=O)O)CCN(Cc2ccc3c(C(F)(F)F)c(O[C@H]4CC[C@@H](C(F)(F)F)CC4)ccc3c2)C1 (relative stereo) [Example 78, 1-((5-(trifluoromethyl)-6-((cis-4-(trifluoromethyl)cyclohexyl)oxy)-naphthalen-2-yl)methyl)-3-aminopyrrolidine-3-carboxylic acid]"
